Measurements: paper PMC6934184, “Selective DNA-PKcs inhibition extends the therapeutic index of localized radiotherapy and chemotherapy” (The Journal of Clinical Investigation, 2019)

Molecular target: T1, MAP4K1 (HPK1) (Homo sapiens, UniProt Q92918)
T1 construct: purchased Thermo Fisher Scientific (Life Technologies) SelectScreen
Assay: SelectScreen LanthaScreen
Assay type: binding
Conditions: read-out: % displacement
Procedure, shortened: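 SelectScreen broad panel; activity (Z'LYTE, Adapta) plus binding formats. ATP: Km app for CSF1R Z'LYTE; 10 for CAMK1 Adapta. Readout = % per kinase.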

T1 sequence (Q92918 whole entry): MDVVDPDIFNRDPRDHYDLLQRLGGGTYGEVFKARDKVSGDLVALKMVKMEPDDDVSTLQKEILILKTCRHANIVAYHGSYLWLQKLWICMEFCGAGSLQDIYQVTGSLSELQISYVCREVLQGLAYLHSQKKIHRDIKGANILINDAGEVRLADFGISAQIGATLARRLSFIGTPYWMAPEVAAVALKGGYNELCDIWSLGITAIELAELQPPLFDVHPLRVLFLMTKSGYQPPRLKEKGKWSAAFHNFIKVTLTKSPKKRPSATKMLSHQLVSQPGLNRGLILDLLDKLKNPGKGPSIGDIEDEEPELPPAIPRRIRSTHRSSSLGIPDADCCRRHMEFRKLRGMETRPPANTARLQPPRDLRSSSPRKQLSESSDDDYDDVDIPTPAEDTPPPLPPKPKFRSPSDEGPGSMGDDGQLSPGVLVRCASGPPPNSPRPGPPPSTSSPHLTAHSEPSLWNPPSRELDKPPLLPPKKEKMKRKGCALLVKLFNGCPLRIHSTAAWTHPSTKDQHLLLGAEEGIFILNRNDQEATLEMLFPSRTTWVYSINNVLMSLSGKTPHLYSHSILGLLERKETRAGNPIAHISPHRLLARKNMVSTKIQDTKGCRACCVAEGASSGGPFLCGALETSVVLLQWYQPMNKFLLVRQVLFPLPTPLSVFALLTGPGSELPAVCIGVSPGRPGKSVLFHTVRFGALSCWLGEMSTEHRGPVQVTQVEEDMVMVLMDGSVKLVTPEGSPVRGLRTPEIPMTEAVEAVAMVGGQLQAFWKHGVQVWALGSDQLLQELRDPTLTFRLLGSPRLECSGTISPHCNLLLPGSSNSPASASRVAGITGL

CN(C(=O)CN1CCOCC1)c1ccc2sc3c(-c4cccc5c(=O)cc(N6CC7CCC(C6)O7)oc45)cccc3c2c1 [NU5455]
inhibition at 1 µM: 1.6%
